From ChEMBL document CHEMBL3593228, “Hedgehog inhibitors from Artocarpus communis and Hyptis suaveolens” (Bioorg Med Chem, 2015) come the findings set out here.

A short description of assay [1]: Inhibition of hedgehog signaling pathway in human HaCaT cells assessed as GLI1-mediated transcriptional activity after 12 hrs by luciferase assay. It counts as cell-based.
Assay [2] can be described thus: Cytotoxicity against Hh signaling abnormally activated human PANC1 cells after 24 hrs by fluorometric microculture assay. The assay is classed as functional, cell-based. The conditions noted are these: PANC-1, 24 h.
Assay [3] can be described thus: Cytotoxicity against mouse C3H10T1/2 cells after 24 hrs by fluorometric microculture assay. The assay is classed as cell-based. The conditions noted are these: C3H 10T1/2, 24 h.
In another assay the test system is DU-145. Description: Cytotoxicity against Hh signaling abnormally activated human DU145 cells after 24 hrs by fluorometric microculture assay. The conditions noted are these: DU-145, 24 h. It counts as functional, cell-based.
Assay [4] is described as follows: Inhibition of hedgehog signaling pathway in human HaCaT cells assessed as reduction of BCL2 expression after 12 hrs by Western blotting. The assay is classed as cell-based.
For assay [5], the target named is T1, Zinc finger protein GLI1 (Homo sapiens) (UniProt P08151).
T1 sequence (whole entry): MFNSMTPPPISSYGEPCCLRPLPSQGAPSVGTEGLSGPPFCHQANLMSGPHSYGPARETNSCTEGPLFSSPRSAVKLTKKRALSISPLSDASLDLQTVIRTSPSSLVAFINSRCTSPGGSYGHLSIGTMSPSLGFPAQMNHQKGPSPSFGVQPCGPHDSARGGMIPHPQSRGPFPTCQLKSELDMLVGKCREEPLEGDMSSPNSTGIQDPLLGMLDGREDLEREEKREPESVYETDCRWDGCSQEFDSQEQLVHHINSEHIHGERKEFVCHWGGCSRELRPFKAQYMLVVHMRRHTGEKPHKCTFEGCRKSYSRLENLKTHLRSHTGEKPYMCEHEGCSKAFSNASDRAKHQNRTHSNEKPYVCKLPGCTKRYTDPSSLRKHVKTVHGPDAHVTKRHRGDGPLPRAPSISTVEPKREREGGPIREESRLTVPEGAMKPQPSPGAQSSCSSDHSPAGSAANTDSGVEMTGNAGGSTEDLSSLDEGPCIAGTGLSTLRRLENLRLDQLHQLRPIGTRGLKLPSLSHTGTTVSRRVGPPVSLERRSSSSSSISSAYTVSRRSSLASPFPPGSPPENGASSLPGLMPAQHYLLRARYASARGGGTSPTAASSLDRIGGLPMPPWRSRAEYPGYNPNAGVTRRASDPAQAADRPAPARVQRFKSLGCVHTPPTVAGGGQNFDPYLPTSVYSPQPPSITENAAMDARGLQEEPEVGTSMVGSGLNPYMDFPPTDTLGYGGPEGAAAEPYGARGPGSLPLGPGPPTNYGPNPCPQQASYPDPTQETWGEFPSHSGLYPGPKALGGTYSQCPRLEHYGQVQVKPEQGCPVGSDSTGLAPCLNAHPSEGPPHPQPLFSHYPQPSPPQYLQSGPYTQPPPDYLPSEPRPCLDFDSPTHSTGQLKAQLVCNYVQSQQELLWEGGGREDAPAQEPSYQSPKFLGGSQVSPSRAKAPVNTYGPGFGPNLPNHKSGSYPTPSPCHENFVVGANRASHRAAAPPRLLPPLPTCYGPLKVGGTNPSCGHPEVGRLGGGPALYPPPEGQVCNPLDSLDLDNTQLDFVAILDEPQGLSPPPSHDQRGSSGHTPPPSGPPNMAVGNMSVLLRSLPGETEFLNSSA
Put plainly: Inhibition of GLI1-DNA (unknown origin) complex formation at 15 to 150 uM after 20 mins by electrophoretic mobility shift assay.

Assay [6] in a line: Inhibition of hedgehog signaling pathway in human DU145 cells assessed as reduction of BCL2 expression at 7 to 13.9 uM after 12 hrs by Western blotting. The assay is classed as cell-based. The conditions noted are these: DU-145.
Assay [7] concerns the target T1, Zinc finger protein GLI1 (Homo sapiens). Put plainly: Inhibition of GLI1-DNA (unknown origin) complex formation at 15 to 30 uM after 20 mins by electrophoretic mobility shift assay.
A short description of assay [8]: Inhibition of hedgehog signaling pathway in human HaCaT cells assessed as reduction of BCL2 expression at 7.6 uM after 12 hrs by Western blotting. It counts as cell-based.
Assay [9] in a line: Inhibition of hedgehog signaling pathway in human HaCaT cells assessed as reduction of BCL2 expression at 13.9 uM after 12 hrs by Western blotting. It counts as cell-based.

Molecules are shown by their SMILES. Calls of active or inactive are those of the source. The rule behind the calls is not given here. A value given as a limit tells only on which side of the number the result lay.

Turning to `CC(C)=CCC/C(C)=C/Cc1c(O)cc2c(c1O)C(=O)C[C@@H](c1ccc(O)cc1)O2` [BONANNIONE A], the IC50 in assay [1] was 14.6 µM; in assay [2], 29.9 µM; in assay [3], above 75 µM. Besides, the inhibition entry in [1] was “Dose-dependent effect”.
Consider `COC(C)(C)CCCC1(C)CCc2c(CCC(=O)c3ccc(O)cc3O)ccc(O)c2O1` (stereo not given), for which the results for the IC50 in [1] and in assay [2] were 39.9 µM and 48.3 µM, respectively.
As to `C=C1C(=O)O[C@H]2/C=C(\C)C[C@@H]3C=C(C/C=C/[C@@](C)(OO)CC[C@H]12)C(=O)O3`, the IC50 in [1] was 7.6 µM; in [2] it was 17.9 µM; in the assay with DU-145, 30.3 µM; in assay [3], above 55.6 µM. Besides, the inhibition entry in [1] and in [4] was “Dose-dependent effect” throughout. The inhibition entry in assay [5] and in assay [6] was “Active” each time.
Take `CC(C)=CCC/C(C)=C/Cc1c(CCC(=O)c2ccc(O)cc2O)ccc(O)c1O`: the IC50 was 23.6 µM in assay [1], 42.9 µM in [2], 80.6 µM in the assay with DU-145 and above 75 µM in [3]. Moreover, the inhibition result in [1] was “Dose-dependent effect”. Also, the inhibition entry in assay [7] was “Active”.
`C=C1C(=O)O[C@H]2/C=C(\C)C[C@@H]3C=C(CC/C=C(\C)CC[C@H]12)C(=O)O3`: the IC50 in assay [1] is 4 µM; in assay [2], 12.1 µM; in the assay on DU-145 it was 32.6 µM; in assay [3] it was above 30.5 µM. The inhibition entry in assay [1] and in assay [4] was “Dose-dependent effect” in each case. In addition, the inhibition entry in [8] and in [6] was “Active” each time. In addition, the inhibition result in assay [5] is “inactive”.
For the compound `CC(C)=CCCC1(C)CCc2c(CCC(=O)c3ccc(O)cc3O)ccc(O)c2O1` (stereo not given), the figures for the 50% inhibitory concentration (IC50) in [1], in assay [2] and in [3] were 44.2 µM, 59.5 µM and above 75 µM, respectively. Besides, the inhibition entry in assay [1] was “Dose-dependent effect”.
Regarding `CC1(C)CCC[C@]2(C)Oc3c(O)ccc(CCC(=O)c4ccc(O)cc4O)c3C[C@@H]12`, the IC50 was 40.7 µM in assay [1], 34.3 µM in assay [2], 53.7 µM with DU-145 and above 75 µM in assay [3]. Further, the inhibition entry in assay [1] was “Dose-dependent effect”.
As for `CC(C)(O)CCCC1(C)Oc2c(O)ccc(CCC(=O)c3ccc(O)cc3O)c2CC1O` (stereo not given), the results for the half-inhibitory concentration (IC50) in [1] and in [2] were 43.5 µM and 58.8 µM, respectively.
As for `C=C1C(=O)O[C@H]2/C=C(\C)C[C@@H]3C=C(C/C=C/[C@@](C)(O)CC[C@H]12)C(=O)O3`, the IC50 was 16.3 µM in assay [1], 46.9 µM in [2] and above 50 µM in [3].
`COC(C)(C)CCC/C(C)=C/Cc1c(CCC(=O)c2ccc(O)cc2O)ccc(O)c1O`: the half-maximal inhibitory concentration (IC50) in [1], in [2] and in assay [3] was above 75 µM throughout. The inhibition result in assay [7] is “Active”.
Turning to `C/C(=C\Cc1c(CCC(=O)c2ccc(O)cc2O)ccc(O)c1O)CCCC(C)(C)O`, the concentration for half-maximal inhibition (IC50) in assay [1], in assay [2] and in assay [3] was above 75 µM in each case.
Regarding `CC(C)(O)CCCC1(C)CCc2c(CCC(=O)c3ccc(O)cc3O)ccc(O)c2O1` (stereo not given), the half-maximal inhibitory concentration (IC50) amounted to 29.5 µM in assay [1] and 36.7 µM in assay [2].
As to `CC(C)=CCCC1(C)Oc2c(O)ccc(CCC(=O)c3ccc(O)cc3O)c2CC1O` (stereo not given), the values for the IC50 in [1], in assay [2] and in assay [3] were 40.1 µM, 50 µM and above 75 µM, respectively. The inhibition result in [1] was “Dose-dependent effect”.
For the compound `C=C1C(=O)O[C@H]2/C=C(\C)C[C@@H]3C=C(CC[C@@H](OO)C(=C)CC[C@H]12)C(=O)O3`, the IC50 was 4.7 µM in assay [1], 15.7 µM in assay [2], 18.8 µM in the assay with DU-145 and above 27.8 µM in assay [3]. Also, the inhibition result in [1] and in assay [4] was “Dose-dependent effect” in each case. The inhibition result in assay [9], in assay [5] and in assay [6] was “Active” throughout.
